The NIST ThermoML archive (doi:10.1016/j.jct.2018.05.029)

Test: molar heat capacity at saturation pressure

Cc1cc2ccccc2[nH]1 [2-methylindole]
molar heat capacity [J/K/mol]
Details | Crystal | Liquid
10 K, Vacuum adiabatic calorimetry | 2.311 | –
11.27 K, Vacuum adiabatic calorimetry | 3.226 | –
12.41 K, Vacuum adiabatic calorimetry | 4.157 | –
13.64 K, Vacuum adiabatic calorimetry | 5.288 | –
15.08 K, Vacuum adiabatic calorimetry | 6.718 | –
16.68 K, Vacuum adiabatic calorimetry | 8.364 | –
18.46 K, Vacuum adiabatic calorimetry | 10.26 | –
20 K, Vacuum adiabatic calorimetry | 11.87 | –
20.49 K, Vacuum adiabatic calorimetry | 12.38 | –
22.77 K, Vacuum adiabatic calorimetry | 14.82 | –
25.3 K, Vacuum adiabatic calorimetry | 17.44 | –
27.77 K, Vacuum adiabatic calorimetry | 19.95 | –
30 K, Vacuum adiabatic calorimetry | 22.09 | –
30.59 K, Vacuum adiabatic calorimetry | 22.64 | –
34.09 K, Vacuum adiabatic calorimetry | 25.92 | –
37.85 K, Vacuum adiabatic calorimetry | 29.24 | –
40 K, Vacuum adiabatic calorimetry | 31.03 | –
41.97 K, Vacuum adiabatic calorimetry | 32.62 | –
46.6 K, Vacuum adiabatic calorimetry | 36.27 | –
50 K, Vacuum adiabatic calorimetry | 38.75 | –
51.65 K, Vacuum adiabatic calorimetry | 39.93 | –
53.69 K, Vacuum adiabatic calorimetry | 41.38 | –
57.12 K, Vacuum adiabatic calorimetry | 43.67 | –
59.07 K, Vacuum adiabatic calorimetry | 45 | –
60 K, Vacuum adiabatic calorimetry | 45.61 | –
64.85 K, Vacuum adiabatic calorimetry | 48.69 | –
70 K, Vacuum adiabatic calorimetry | 51.82 | –
71.32 K, Vacuum adiabatic calorimetry | 52.61 | –
78.49 K, Vacuum adiabatic calorimetry | 56.75 | –
80 K, Vacuum adiabatic calorimetry | 57.59 | –
86.43 K, Vacuum adiabatic calorimetry | 61.12 | –
90 K, Vacuum adiabatic calorimetry | 63.03 | –
95.28 K, Vacuum adiabatic calorimetry | 65.82 | –
100 K, Vacuum adiabatic calorimetry | 68.27 | –
104.89 K, Vacuum adiabatic calorimetry | 70.77 | –
114.73 K, Vacuum adiabatic calorimetry | 75.78 | –
120 K, Vacuum adiabatic calorimetry | 78.44 | –
124.69 K, Vacuum adiabatic calorimetry | 80.8 | –
134.71 K, Vacuum adiabatic calorimetry | 85.9 | –
140 K, Vacuum adiabatic calorimetry | 88.58 | –
144.77 K, Vacuum adiabatic calorimetry | 91.01 | –
154.9 K, Vacuum adiabatic calorimetry | 96.19 | –
160 K, Vacuum adiabatic calorimetry | 98.83 | –
165.05 K, Vacuum adiabatic calorimetry | 101.46 | –
175.19 K, Vacuum adiabatic calorimetry | 106.71 | –
180 K, Vacuum adiabatic calorimetry | 109.23 | –
185.36 K, Vacuum adiabatic calorimetry | 112.05 | –
195.56 K, Vacuum adiabatic calorimetry | 117.49 | –
200 K, Vacuum adiabatic calorimetry | 119.87 | –
205.76 K, Vacuum adiabatic calorimetry | 122.96 | –
215.96 K, Vacuum adiabatic calorimetry | 128.49 | –
220 K, Vacuum adiabatic calorimetry | 130.72 | –
226.14 K, Vacuum adiabatic calorimetry | 134.11 | –
236.28 K, Vacuum adiabatic calorimetry | 139.71 | –
240 K, Vacuum adiabatic calorimetry | 141.78 | –
246.38 K, Vacuum adiabatic calorimetry | 145.35 | –
256.59 K, Vacuum adiabatic calorimetry | 151.16 | –
260 K, Vacuum adiabatic calorimetry | 153.09 | –
266.92 K, Vacuum adiabatic calorimetry | 157.02 | –
276.47 K, Vacuum adiabatic calorimetry | 162.53 | –
277.41 K, Vacuum adiabatic calorimetry | 163.05 | –
280 K, Vacuum adiabatic calorimetry | 164.7 | –
287.09 K, Vacuum adiabatic calorimetry | 169.07 | –
288.08 K, Vacuum adiabatic calorimetry | 169.56 | –
297.66 K, Vacuum adiabatic calorimetry | 175.26 | –
298.15 K, Vacuum adiabatic calorimetry | 175.55 | 224.57
298.88 K, Vacuum adiabatic calorimetry | 176.09 | –
300 K, Vacuum adiabatic calorimetry | 176.66 | 225.41
302.77 K, Vacuum adiabatic calorimetry | 178.44 | –
304.06 K, Vacuum adiabatic calorimetry | 179.13 | –
308.05 K, Vacuum adiabatic calorimetry | 181.6 | –
309.63 K, Vacuum adiabatic calorimetry | 182.65 | –
311.79 K, Vacuum adiabatic calorimetry | 184.11 | –
312.14 K, Vacuum adiabatic calorimetry | 184.35 | –
320 K, Vacuum adiabatic calorimetry | 189.37 | 234.36
320.34 K, Vacuum adiabatic calorimetry | 189.58 | –
331.97 K, Vacuum adiabatic calorimetry | 197.27 | 239.7
337.63 K, Vacuum adiabatic calorimetry | – | 242.18
338.88 K, Vacuum adiabatic calorimetry | – | 242.77
340 K, Vacuum adiabatic calorimetry | – | 243.31
341.57 K, Vacuum adiabatic calorimetry | – | 244.01
349.89 K, Vacuum adiabatic calorimetry | – | 247.67
350.31 K, Vacuum adiabatic calorimetry | – | 247.9
360 K, Vacuum adiabatic calorimetry | – | 252.22
362.02 K, Vacuum adiabatic calorimetry | – | 253.13
374.86 K, Vacuum adiabatic calorimetry | – | 258.66
380 K, Vacuum adiabatic calorimetry | – | 260.9
387.5 K, Vacuum adiabatic calorimetry | – | 264.11
399.88 K, Vacuum adiabatic calorimetry | – | 269.16
400 K, Vacuum adiabatic calorimetry | – | 269.22
412.6 K, Vacuum adiabatic calorimetry | – | 274.35
420 K, Vacuum adiabatic calorimetry | – | 277.24
425.58 K, Vacuum adiabatic calorimetry | – | 279.37
436.98 K, Vacuum adiabatic calorimetry | – | 283.72
440 K, Vacuum adiabatic calorimetry | – | 284.91
460 K, Small sample (50 mg) DSC | – | 292.55
480 K, Small sample (50 mg) DSC | – | 299.89
500 K, Small sample (50 mg) DSC | – | 307.02
520 K, Small sample (50 mg) DSC | – | 313.94
540 K, Small sample (50 mg) DSC | – | 320.66
560 K, Small sample (50 mg) DSC | – | 327.16
580 K, Small sample (50 mg) DSC | – | 333.46
600 K, Small sample (50 mg) DSC | – | 339.55
620 K, Small sample (50 mg) DSC | – | 345.45
640 K, Small sample (50 mg) DSC | – | 351.22
660 K, Small sample (50 mg) DSC | – | 356.94
680 K, Small sample (50 mg) DSC | – | 362.78
700 K, Small sample (50 mg) DSC | – | 369.01
